Experimental data as given in patent publication US12365680B2, “Polymorphs of the hydrochloride salt of linaprazan glurate” (Cinclus Pharma Holding AB (Publ), priority 2021, dated 2025).
“Also recorded” adds a separate entry of the source. Structures can show the parent of a compound that is named as a salt. Each block holds one compound with its values, some of them ahead of it.

How the values were obtained:
[1] = Solubility of free base and HCl salt in media simulating gastric fluid (FaSSGF, FeDSGA); assay type: physicochemical; settings: after 1 hour
Experimental: For solubility studies, HPLC was performed using an Agilent 1100 series Liquid Chromatography system, equipped with DAD spectrometer. Analyses were performed using a Waters X Bridge BEH C18 column (4.6×100 mm, 2.5 μm) at 30° C. Mobile phase: A=0.1% formic acid in water, B=0.1% formic acid in acetonitrile. Flow rate 0.8 mL/min. Mobile phase program:
The solubility of the crystalline free base (Form A) and the crystalline HCl salt of linaprazan glurate (mixture of Forms 1 and 2) was studied in Fasted State Simulated Gastric Fluid (FaSSGF, Biorelevant, batch FFF-0119-B; pH 1.6) and Fed State Gastric Acid (FeDSGA, Biorelevant, batch FEDGAS-120-A; pH 5.0).
Saturated solutions were prepared in 4 mL vials by adding a fixed weight of the crystalline base or the crystalline HCl salt to 2 mL of each of the different buffer solutions. Vials were sonicated for 10 minutes and then stirred with a magnetic stirrer on a water bath (37° C.) for 24 hours. Samples were taken after 1, 4 and 24 hours, in replicates, and analysed by HPLC-UV. Concentrations were calculated from a calibration curve, constructed using 8 calibration standards (serial dilutions of stock solutions of the free base and the HCl salt of linaprazan glurate).

[2] = cited from earlier work
[3] = Pharmacokinetics of linaprazan glurate after absorption; settings: in vivo
intragastric acidity = test: Clinical Phase I study of linaprazan glurate, intragastric pH; assay type: in vivo; settings: human, plasma, oral; after 22 hours; to maintain intra-gastric pH above 4 for 24 hours; read-out: minimal plasma concentration (Cmin) of linaprazan required
[4] = Phase I and II studies; cited from earlier work
[5] = Dynamic vapour sorption (DVS) hygroscopicity; assay type: physicochemical
Experimental: Analyses were performed on an SMS DVS-1 instrument. A few mg of the substance was added into an Al pan and exposed to stepwise RH changes during two identical consecutive cycles according to 0-10-20-30-40-50-60-70-80-90-80-70-60-50-40-30-20-10-0% RH using open loop mode. The experiments were performed using a gas flow rate of 200 mL/min and at 25° C. The dm/dt criteria applied was 0.001 weight-%/min during a 5-minutes window, with a maximum allowed time of 360 minutes and a minimum allowed time of 10 minutes for all steps.
The hygroscopicity of Form 1 (obtained by crystallisation from DMF using EtOAc as the anti-solvent) and Form 2 (obtained from a slurry in MeOH) was investigated using DVS at 25° C. […] With a water uptake of 0.2% at 90% RH, Form 1 can be classified as non-hygroscopic.
The water uptake is rapid when the relative humidity is increased, and the water loss is equally rapid when the relative humidity is decreased. The sorption behaviour is typical for a channel hydrate, where the crystal structure adapts to accommodate different amounts of water depending on the surrounding humidity. The water uptake of 4.7% at 90% RH corresponds to 1.3 water molecules per linaprazan glurate HCl unit.

Structure (SMILES): Cc1cccc(C)c1CNc1cc(C(=O)NCCOC(=O)CCCC(=O)O)cn2c(C)c(C)nc12 [Form 2]
- hygroscopicity (in words) ([5]; DVS at 25° C.): significant uptake of water at elevated humidities
- water uptake ([5]; DVS at 25° C., 90% RH): 4.7%
- water molecules per linaprazan glurate HCl unit ([5]; corresponds to water uptake at 90% RH): 1.3

Structure (SMILES): Cc1cccc(C)c1CNc1cc(C(=O)NCCOC(=O)CCCC(=O)O)cn2c(C)c(C)nc12 [HCl salt]
- solubility of the HCl salt relative to the free base ([1]; FeDSGA pH 5.0, 37° C.): more than 6.5 times

Structure (SMILES): Cc1cccc(C)c1CNc1cc(C(=O)NCCOC(=O)CCCC(=O)O)cn2c(C)c(C)nc12 [Form 1]
- hygroscopicity (in words) ([5]; DVS at 25° C.): non-hygroscopic; also recorded: very low hygroscopicity

The next lines start with results.

- solubility of the free base relative to the HCl salt ([1]; FaSSGF pH 1.6, 37° C.): about 1.4 times
Structure (SMILES): Cc1cccc(C)c1CNc1cc(C(=O)NCCOC(=O)CCCC(=O)O)cn2c(C)c(C)nc12 [free base]
- solubility at pH 1 ([2]; pH 1): only slightly soluble
- solubility in water at pH 6.8 ([2]; pH 6.8): practically insoluble

- half-life in the body compared to linaprazan [3]: longer half-life
- metabolism following absorption into the blood stream [3]: quickly metabolized into linaprazan
- plasma concentration [3]: only very low and difficult to determine
Structure (SMILES): Cc1cccc(C)c1CNc1cc(C(=O)NCCOC(=O)CCCC(=O)O)cn2c(C)c(C)nc12 [linaprazan glurate, 5-{2-[({8-[(2,6-dimethylbenzyl)amino]-2,3-dimethylimidazo[1,2-a]pyridine-6-yl}carbonyl)-amino]ethoxy}-5-oxopentanoic acid]

- concentration at 22 h (intragastric acidity): ≥ 240 nM
Structure (SMILES): Cc1cccc(C)c1CNc1cc(C(=O)NCCO)cn2c(C)c(C)nc12 [linaprazan]
- elimination [4]: quickly eliminated from the body
- onset of action and effect [4]: fast onset of action and full effect at first dose
- tolerability [4]: well tolerated
